# According to patent US11578055B2, “Triazacyclododecansulfonamide (“TCD”)-based protein secretion inhibitors” (KEZAR LIFE SCIENCES, priority 2018, dated 2023):
# Read-outs that look alike come from different tables or passages of the source.
# Experiments:
# [1] = system: multiple myeloma cell line U266B1; assay: U266 Cell Viability Assay; format: cell-based, human; conditions: Homo sapiens, U-266, 48 hr
# Summary of the method: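 Viability was measured by CellTiter-Glo luminescence after 48 h compound exposure at 37° C, 5% CO2. The cells were U266B1 multiple myeloma cells grown in RPMI 1640 plus 10% FBS. Where stereochemistry is not shown, values apply to the stereoisomer mixture.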
# [2] = In Vitro Microsome Stability Assay (rat); format: in vitro ADME
# Summary of the method: (§1)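 Test article, added from a 0.25 mM DMSO stock, was incubated with liver microsomes (20 mg/mL stock) in 0.1 M potassium phosphate at 37° C, with the reaction started by NADPH. Samples were quenched with acetonitrile containing internal standard at 0 and 30 min and analysed by LC-MS/MS. Values are % remaining at 30 min versus 0 min, using IS-normalised AUC ratios.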
# [3] = system: target signal sequences plus 10 amino acids fused to Gaussia Luciferase; assay: Transiently Expressed Dox Induced Signal Sequence-Gluc Assay; format: cell-based; conditions: read-out: Signal Sequence-Gluc potency
# Description: FIp-In 293 T-REx™ cells were transfected with 500 ng pcDNA™5/FRT/TO plasmids inserted with cDNA encoding Gaussia Luciferase fused to the 3′ end of cDNA encoding target signal sequences plus 10 amino acids. Transfected cells were incubated overnight then cells were trypsinized and plated in 384-well tissue culture plates. The next day, compound dilutions in DMSO/media containing doxycycline were added to the wells and incubated at 37° C., 5% CO2.
# IL-2 = assay: Human PBMC Cytokine Assay: IL-2; format: cell-based; conditions: anti-CD3/CD28 stimulation, 24 hours
# Description: (§2) Human PBMC were freshly isolated from whole blood collections of 3 normal donors utilizing density gradient centrifugation followed by red blood cell lysis. PBMC from each donor were assayed separately. Cells were suspended in RPMI 1640 media supplemented with 5% fetal bovine serum, 2 mM L-glutamine, 10 mM HEPES, and 1× penicillin/streptomycin. PBMC were seeded at 200,000 cells/well in 96-well round-bottom plates either without stimulation or with stimulation by lipopolysaccharide (LPS, 1 μg/mL) or antibodies against human CD3 (plate-bound, 2 μg/mL) and human CD28 (soluble, 2 μg/mL). Serial dilutions of compound in DMSO/media were simultaneously added and PBMC were incubated at 37° C., 5% CO2 for 24 hours. After 24 hours, plates were centrifuged and half of the supernatant volume removed for cytokine analysis by electrochemiluminescent immunoassay (U-PLEX® Biomarker Multiplex, Meso Scale Discovery). For viability analysis, CellTiter-Glo® (Promega) was added to the remaining material in each well and quantified via luminescent plate reader.
# [4] = In Vitro Microsome Stability Assay (human); format: in vitro ADME
# Summary of the method: as §1
# [5] = system: full length IL-2 (amino acids 1-153) fused to Gaussia Luciferase; assay: Dox Induced IL2-FL-Gluc Assay; format: cell-based; conditions: 24 hr, read-out: 24 hr Dox Inducible IL2FLGluc 293FRT/TO: Mean IC50
# Summary of the method: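 Compounds in DMSO/media with doxycycline were added to cells plated the previous day and incubated at 37° C, 5% CO2. Cells: stable Flp-In 293 T-REx line, Dox-regulated expression of IL-2 (aa 1-153) fused at its C-terminus to Gaussia luciferase.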
# IFNγ = assay: Human PBMC Cytokine Assay: IFNγ; format: cell-based; conditions: anti-CD3/CD28 stimulation, 24 hours
# Description: as §2
# [6] = Target ADAM10 signal peptide +10 amino acids
# [7] = Target B7H3 signal peptide +10 amino acids
# [8] = Target CD73 signal peptide +10 amino acids
# [9] = Target CD96 signal peptide +10 amino acids
# [10] = Target CTLA-4 signal peptide +10 amino acids
# [11] = Target EGFR signal peptide +10 amino acids
# [12] = Target GP130 signal peptide +10 amino acids
# [13] = Target HER3 signal peptide +10 amino acids
# [14] = Target IFN-a1 signal peptide +10 amino acids
# [15] = Target IFN-a2 signal peptide +10 amino acids
# [16] = Target IFN-a4 signal peptide +10 amino acids
# [17] = Target IFN-b signal peptide +10 amino acids
# [18] = Target IFNAR1 signal peptide +10 amino acids
# [19] = Target IFNAR2 signal peptide +10 amino acids
# [20] = Target IL-1R1 signal peptide +10 amino acids
# [21] = Target IL-1R2 signal peptide +10 amino acids
# [22] = Target IL-1Ra (isoform 1) signal peptide +10 amino acids
# [23] = Target IL-2Ra (CD25) signal peptide +10 amino acids
# [24] = Target IL-6R signal peptide +10 amino acids
# [25] = Target IL-6 signal peptide +10 amino acids
# [26] = Target IL-7R signal peptide +10 amino acids
# [27] = Target IL-12b (p40) signal peptide +10 amino acids
# [28] = Target IL-17Ra signal peptide +10 amino acids
# [29] = Target IL-17a signal peptide +10 amino acids
# [30] = Target IL-23R signal peptide +10 amino acids
# [31] = Target IL-23a signal peptide +10 amino acids
# [32] = Target LAG3 signal peptide +10 amino acids
# [33] = Target PD-L1 signal peptide +10 amino acids
# [34] = Target PDGFRa signal peptide +10 amino acids
# [35] = Target TACE (ADAM17) signal peptide +10 amino acids
# [36] = Target TIGIT signal peptide +10 amino acids
# [37] = Target TIM3 signal peptide +10 amino acids
# [38] = Target TNFR1 signal peptide +10 amino acids
# [39] = Target TNFR2 signal peptide +10 amino acids
# [40] = Target VEGF signal peptide +10 amino acids
# [41] = Target VGFR2 signal peptide +10 amino acids
# [42] = Target VISTA signal peptide +10 amino acids
# [43] = rat liver microsomes, 30 min w/ NADPH
# [44] = human liver microsomes, 30 min w/ NADPH
smiles,measurement,setting,value
C[C@H]1CN(S(=O)(=O)c2ccc(N(C)C)cc2)CCCN(CC2CCCCC2)CCCN(S(=O)(=O)N2CCc3cc(Cl)ccc3C2)C1 [A87],EC50,"[1]; U266, read-out: 48 hr U266 Viability Celltiter-Glo: Mean EC50",> 25 µM
same,Liver Microsome Stability-% Left after 30 min w/ NADPH (%) Rat,"[2]; rat, 30 min, NADPH",43.6%
same,IC50,[3]; [6],231 nM
same,IC50,[3]; [7],27 nM
same,IC50,[3]; [8],58 nM
same,IC50,[3]; [9],12 nM
same,IC50,[3]; [10],259 nM
same,IC50,[3]; [11],60 nM
same,IC50,[3]; [12],201 nM
same,IC50,[3]; [13],89 nM
same,IC50,[3]; [14],128 nM
same,IC50,[3]; [15],51 nM
same,IC50,[3]; [16],221 nM
same,IC50,[3]; [17],818 nM
same,IC50,[3]; [18],14 nM
same,IC50,[3]; [19],133 nM
same,IC50,[3]; [20],374 nM
same,IC50,[3]; [21],23 nM
same,IC50,[3]; [22],111 nM
same,IC50,[3]; [23],159 nM
same,IC50,[3]; [24],78 nM
same,IC50,[3]; [25],66 nM
same,IC50,[3]; [26],58 nM
same,IC50,[3]; [27],155 nM
same,IC50,[3]; [28],424 nM
same,IC50,[3]; [29],447 nM
same,IC50,[3]; [30],111 nM
same,IC50,[3]; [31],567 nM
same,IC50,[3]; [32],75 nM
same,IC50,[3]; [33],56 nM
same,IC50,[3]; [34],90 nM
same,IC50,[3]; [35],66 nM
same,IC50,[3]; [36],162 nM
same,IC50,[3]; [37],282 nM
same,IC50,[3]; [38],307 nM
same,IC50,[3]; [39],564 nM
same,IC50,[3]; [40],111 nM
same,IC50,[3]; [41],684 nM
same,IC50,[3]; [42],211 nM
same,IC50,IL-2,31 nM
same,Liver Microsome Stability-% Left after 30 min w/ NADPH (%) Human,"[4]; human, 30 min, NADPH",39.7%
same,IC50,[5]; 293FRT/TO,50.2 nM
same,IC50,IFNγ,152 nM
"C[C@H]1CN(S(=O)(=O)c2ccc(N(C)C)cc2)CCCN(CC2CCCCC2)CCCN(S(=O)(=O)N2CCc3c(C#N)cccc3C2)C1 [A151, 2-{[(3S)-9-(cyclohexylmethyl)-5-[4-(dimethylamino)benzenesulfonyl]-3-methyl-1,5,9-triazacyclododecan-1-yl]sulfonyl}-1,2,3,4-tetrahydroisoquinoline-5-carbonitrile]",EC50,"[1]; U266, Celltiter-Glo",> 25 µM
same,Liver Microsome Stability-% Left after 30 min w/ NADPH (%) Rat,[2]; [43],4.2%
same,IC50,[3]; [6],849 nM
same,IC50,[3]; [7],201 nM
same,IC50,[3]; [8],375 nM
same,IC50,[3]; [9],107 nM
same,IC50,[3]; [10],1140 nM
same,IC50,[3]; [11],412 nM
same,IC50,[3]; [12],969 nM
same,IC50,[3]; [13],522 nM
same,IC50,[3]; [14],820 nM
same,IC50,[3]; [15],404 nM
same,IC50,[3]; [16],1130 nM
same,IC50,[3]; [17],4300 nM
same,IC50,[3]; [18],145 nM
same,IC50,[3]; [19],778 nM
same,IC50,[3]; [20],1470 nM
same,IC50,[3]; [21],168 nM
same,IC50,[3]; [22],666 nM
same,IC50,[3]; [23],876 nM
same,IC50,[3]; [24],445 nM
same,IC50,[3]; [25],437 nM
same,IC50,[3]; [26],392 nM
same,IC50,[3]; [27],913 nM
same,IC50,[3]; [28],1860 nM
same,IC50,[3]; [29],1820 nM
same,IC50,[3]; [30],666 nM
same,IC50,[3]; [31],1920 nM
same,IC50,[3]; [32],464 nM
same,IC50,[3]; [33],366 nM
same,IC50,[3]; [34],565 nM
same,IC50,[3]; [35],391 nM
same,IC50,[3]; [36],737 nM
same,IC50,[3]; [37],1350 nM
same,IC50,[3]; [38],1620 nM
same,IC50,[3]; [39],2110 nM
same,IC50,[3]; [40],645 nM
same,IC50,[3]; [41],2590 nM
same,IC50,[3]; [42],911 nM
same,Liver Microsome Stability-% Left after 30 min w/ NADPH (%) Human,[4]; [44],4.28%
same,IC50,"[5]; Dox inducible, 293FRT/TO cells",306 nM
"COc1cc(F)ccc1N1CCN(S(=O)(=O)N2CCCN(CC3CCCCC3)CCCN(S(=O)(=O)c3ccc(N(C)C)cc3)C[C@H](C)C2)C[C@H]1C [A177, 4-{[(3S)-9-(cyclohexylmethyl)-5-{[(3 R)-4-(4-fluoro-2-methoxyphenyl)-3-methylpiperazin-1-yl]sulfonyl}-3-methyl-1,5,9-triazacyclododecan-1-yl]sulfonyl}-N,N-dimethylaniline]",EC50,"[1]; U266, Celltiter-Glo",> 25 µM
same,Liver Microsome Stability-% Left after 30 min w/ NADPH (%) Rat,[2]; [43],14.5%
same,IC50,IL-2,10 nM
same,Liver Microsome Stability-% Left after 30 min w/ NADPH (%) Human,[4]; [44],13.7%
same,IC50,"[5]; Dox inducible, 293FRT/TO cells",12.6 nM
same,IC50,IFNγ,19 nM
